Assays:
[1] = test system: procaspase-3 in U-937, A549, BT-549 cell lines; assay: Western blot of procaspase-3 cleavage to caspase-3 in cancer cell lines; type: cell-based, human
Text: FIG. 5. PAC-1/1541B combinations induce rapid and dramatic procaspase-3 maturation and activation. A: The caspase-3/-7-like activity of cancer cell lysates after treatment with the PAC-1/1541B combinations. STS=staurosporine. B: Western blot of various cancer cell lines (using Cell Signaling caspase-3 antibody) after treatment with combinations of PAC-1 and 1541B.
FIG. 6. Data analogous to FIG. 5B with A: HL-60 (human leukemia), B: EL4 (murine lymphoma), C: Hs578T (human breast cancer), and D: Jurkat (human leukemia) cell lines.
FIG. 13. Western blot procaspase3 activation analysis of U-937 cells treated with increasing concentrations of 1541B and either with or without PAC-1.
To determine if the elevation of DEVDase activity was the result of enhanced cleavage of procaspase-3 to caspase-3 facilitated by compound co-treatment, cells treated with PAC-1 and 1541B combinations were assessed by Western blot.
Rather 1541 operates by an allosteric binding and activation mechanism.

[2] = test system: EL4 (murine lymphoma) cells; assay: EL4 syngeneic murine tumor model; type: in vivo, C57/BL6 mice; settings: PAC-1 125 mg/kg in HPβCD once-a-day for three days; tumors weighed after 8 days
Description: EL4 cells (10 million cells per mouse) were injected subcutaneously into mice, the animals were split into four groups and treated with vehicle (2-hydroxypropyl-β-cyclodextrin, HPβCD), 1541B (at 17.5 mg/kg in HPβCD), PAC-1 (125 mg/kg in HPβCD), or 1541B+PAC-1 (17.5 and 125 mg/kg, respectively, in HPβCD). After eight days the mice were sacrificed and the tumors excised and weighed. Error bars equal standard error, and p-values indicated are relative to vehicle control.
To explore the therapeutic utility of this dual procaspase-3 activation strategy, the combination of PAC-1 and 1541B were examined in a murine tumor model.
C57/BL6 mice implanted with EL4 (murine lymphoma) cells were treated with PAC-1 alone (125 mg/kg), 1541B alone (17.5 mg/kg), and PAC-1+1541B (125 mg/kg and 17.5 mg/kg, respectively) once-a-day for three days.

MCF-7 cells = assay: Protection by a pan-caspase inhibitor against PAC-1/1541B-mediated cell death; type: cell-based; settings: Q-VD-OPh 25 μM
Text: The proapoptotic effect of the PAC-1/1541B combination was blocked with the pan-caspase inhibitor Q-VD-OPh, consistent with the involvement of caspases in the mode of cell death (FIG. 10).

Row | SMILES | activation of procaspase-3 to caspase-3 (Western blot) [1] | effect on tumor growth [2] | protection against PAC-1/1541B-mediated cell death (MCF-7 cells)
1 | C=CCc1cccc(/C=N/NC(=O)CN2CCN(Cc3ccccc3)CC2)c1O [PAC-1, 2-(4-benzylpiperazin-1-yl)-N-[(2-hydroxy-3-prop-2-enyl-phenyl)methylideneamino]acetamide] | low/no procaspase-3 activation | only minimal effect | 
2 | CC(C)[C@H](NC(=O)c1ccc2ccccc2n1)C(=O)N[C@@H](CC(=O)O)C(=O)COc1c(F)cccc1F [Q-VD-OPh] |  |  | protects against PAC-1/1541B-mediated cell death

From patent publication US9592229B2, “Potent anticancer activity via dual compound activation” (priority 2012, dated 2017)
